This test concerns the target Delta-5-Desaturase (D5D) (Homo sapiens (Human), UniProt O60427). Nature of the test: In vitro measurement of Delta-5-Desaturase inhibitory activity using DGLA-CoA and Arachidonyl-CoA mass spectrometric assays. The format is biochemical. The settings on record: membrane preparations of D5D-overexpressing HEK293 6E cells; averaged over at least two independent runs. The protocol:
In vitro Measurement of Delta-5-Desaturase Inhibitory Activity using DGLA-CoA and Arachidonyl-CoA Mass Spectrometric Assays
Membrane preparations of D5D-overexpressing HEK293 6E cells were prepared in which the total protein concentration was 5.6 mg/mL. Stock D5D membrane preparations were diluted in D5D assay buffer (25 mM 2-amino-2-(hydroxymethyl)-1,3-propanediol, pH 7.5 containing 10 mM MgCl2, 1 mM octyl glucoside (SigmaAldrich 0-8001), 1 mM tris(2-carboxyethyl)phosphine hydrochloride (SigmaAldrich 646547)) to a final D5D membrane concentration of 10 μg/mL in an assay plate containing serially diluted test compounds. To 15 μL of this D5D preparation was added 15 μL of a substrate solution (0.25 mM NADH (nicotinamide adenine dinucleotide, Roche Diag. 10107735001), 0.25 mM adenosine triphosphate (SigmaAldrich A-3377), 0.05 mM coenzyme A hydrate (SigmaAldrich C-4282), and 0.01 mM DGLA (dihomo-g-linolenic acid, Sigma E-4504) in the same D5D assay buffer. After one-hour incubation at ambient temperature acetonitrile (30 μL) was added to quench the reaction and plates were centrifuged for 10 min @3,000 rpm. Mass spectrometric analysis involved a Rapidfire 360 SPE system coupled to an ABSciex API4000 Triple Quadrupole mass spectrometer using a C18 SPE cartridge (G9203-80105) with ionization in negative mode (solvent A=100% water; solvent B=100% acetonitrile, each solvent containing 5 mM ammonium acetate). DGLA-CoA and Arachidonyl-CoA were detected by multiple reaction monitoring (MRM) of the doubly charged parent ions at m/z 526.6 and 525.6, respectively.
Sx is value from unknown sample, So is value from DMSO alone and Sc is value from no enzyme well. For CRC analysis, the % of inhibitions were analyzed with 4 Parameter Logistic Model or Sigmoidal Dose-Response Model using XLfit (IDBS, Guilford, UK). The potency of the test item was expressed as IC50 nM, corresponding to the test item concentration able to inhibit the 50% of the enzyme maximal response. IC50 values were averaged values determined by at least two independent runs.
This assay may be used to test any of the compounds described herein to assess and characterize a compound's ability to inhibit D5D.

Sequence of Delta-5-Desaturase (D5D) (O60427 whole entry, species assumed): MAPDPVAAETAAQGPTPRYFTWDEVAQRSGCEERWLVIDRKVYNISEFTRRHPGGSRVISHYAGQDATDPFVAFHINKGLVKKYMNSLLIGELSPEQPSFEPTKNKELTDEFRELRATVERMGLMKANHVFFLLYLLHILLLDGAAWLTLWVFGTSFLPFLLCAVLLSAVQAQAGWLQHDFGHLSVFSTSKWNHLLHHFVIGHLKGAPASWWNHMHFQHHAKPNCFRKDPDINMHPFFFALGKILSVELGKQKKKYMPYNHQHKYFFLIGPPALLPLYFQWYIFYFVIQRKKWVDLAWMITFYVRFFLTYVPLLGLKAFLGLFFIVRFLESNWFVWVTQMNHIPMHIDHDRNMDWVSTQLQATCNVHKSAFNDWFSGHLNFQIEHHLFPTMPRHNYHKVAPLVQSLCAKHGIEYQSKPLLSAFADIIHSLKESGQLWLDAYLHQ

On to `CCCc1ccc(-c2c(C(F)(F)F)nc3cc(OC)ccn3c2=O)cc1` [Example 1-79, 8-methoxy-3-(4-propylphenyl)-2-(trifluoromethyl)-4H-pyrido[1,2-a]pyrimidin-4-one], for which half-maximal inhibition (IC50) required 3.6 nM.
Next, `COc1ccn2c(=O)c(-c3ccc(OCCF)cc3)c(C(F)(F)F)nc2c1` [Example 1-11, 3-(4-(2-fluoroethoxy)phenyl)-8-methoxy-2-(trifluoromethyl)-4H-pyrido[1,2-a]pyrimidin-4-one]: 26.1 nM.
As for `[2H]C([2H])([2H])Oc1ccn2c(=O)c(-c3ccc(OCCF)cc3)c(C(F)(F)F)nc2c1` [Example 1-51, 3-(4-(2-fluoroethoxy)phenyl)-8-(methyloxy-d3)-2-(trifluoromethyl)-4H-pyrido[1,2-a]pyrimidin-4-one], the figure is 26.6 nM; as for `O=c1c(-c2cnn(-c3ccccc3)c2)c(C(F)(F)F)nc2ccccn12` [Example 1-43, 3-(1-phenyl-1H-pyrazol-4-yl)-2-(trifluoromethyl)-4H-pyrido[1,2-a]pyrimidin-4-one], 45.6 nM.
Next, `CCc1nc2cc(OC)ccn2c(=O)c1-c1ccc(OCC(F)(F)F)nc1` [Example 1-60, 2-ethyl-8-methoxy-3-(6-(2,2,2-trifluoroethoxy)-3-pyridinyl)-4H-pyrido[1,2-a]pyrimidin-4-one]: 37.8 nM; `O=c1c(-c2ccc(OCC(F)(F)F)cc2)c(C(F)(F)F)nc2cc(OCF)ccn12` [Example 17-2, 8-(fluoromethoxy)-3-(4-(2,2,2-trifluoroethoxy)phenyl)-2-(trifluoromethyl)-4H-pyrido[1,2-a]pyrimidin-4-one]: 48.6 nM.
Consider `COc1nc2nc(C(F)(F)F)c(-c3cnn(CC(F)(F)C(F)(F)F)c3)c(=O)n2cc1F` [Example 42, 7-Fluoro-8-methoxy-3-[1-(2,2,3,3,3-pentafluoropropyl)-1H-pyrazol-4-yl]-2-(trifluoromethyl)-4H-[1,3]diazino[1,2-a]pyrimidin-4-one], for which the IC50 turned out to be 168 nM.
Next, `COc1ccn2c(=O)c(-c3ccc(O[C@@H](C)C#N)cc3)c(C(F)(F)F)nc2n1` [Example 8-7, (2S)-2-(4-(8-methoxy-4-oxo-2-(trifluoromethyl)-4H-pyrimido[1,2-a]pyrimidin-3-yl)phenoxy)propanenitrile]: 4910 nM.
Next, `Cn1c(=O)c(F)cn2c(=O)c(-c3cnn(CC(F)(F)C(F)(F)F)c3)c(C(F)(F)F)nc12` [Example 63, 3-Fluoro-1-methyl-7-[1-(2,2,3,3,3-pentafluoropropyl)-1H-pyrazol-4-yl]-8-(trifluoromethyl)-1H,2H,6H-[1,3]diazino[1,2-a]pyrimidine-2,6-dione]: 43.6 nM.
For the compound `C[S@+]([O-])c1ccn2c(=O)c(-c3ccc(OCC(F)(F)F)cc3)c(C(F)(F)F)nc2c1` [Example 15-3, 8-((S)-methylsulfinyl)-3-(4-(2,2,2-trifluoroethoxy)phenyl)-2-(trifluoromethyl)-4H-pyrido[1,2-a]pyrimidin-4-one], 235 nM corresponded to half-maximal inhibition (IC50).
Next, `O=c1c(-c2cnn(CC(F)(F)C(F)(F)F)c2)c(C(F)(F)F)nc2ccc(N3CCC3)cn12` [Example 39-28, 7-(azetidin-1-yl)-3-[1-(2,2,3,3,3-pentafluoropropyl)-1H-pyrazol-4-yl]-2-(trifluoromethyl)-4H-pyrido[1,2-a]pyrimidin-4-one]: > 67000 nM; `COc1ccn2c(=O)c(-c3ccc(OC[C@@H]4CC4(F)F)cc3)c(C(F)(F)F)nc2c1` (single isomer, unassigned) [Example 1-84]: 2.7 nM; `COc1ccn2c(=O)c(-c3cnn(CC4COC4)c3)c(C(F)(F)F)nc2c1` [Example 39-54, 8-methoxy-3-{1-[(oxetan-3-yl)methyl]-1H-pyrazol-4-yl}-2-(trifluoromethyl)-4H-pyrido[1,2-a]pyrimidin-4-one]: 207 nM.
`[2H]C([2H])([2H])Oc1ccn2c(=O)c(-c3ccc(OCC4CC4)cc3)c(C(F)(F)F)nc2c1` [Example 1-65, 3-(4-(cyclopropylmethoxy)phenyl)-8-(methyloxy-d3)-2-(trifluoromethyl)-4H-pyrido[1,2-a]pyrimidin-4-one] registered an IC50 of 3.2 nM.
As to `CN(C)C(=O)c1ccn2c(=O)c(-c3ccc(OCC(F)(F)F)cc3)c(C(F)(F)F)nc2c1` [Example 12-3, N,N-dimethyl-4-oxo-3-(4-(2,2,2-trifluoroethoxy)phenyl)-2-(trifluoromethyl)-4H-pyrido[1,2-a]pyrimidine-8-carboxamide], the IC50 was 2540 nM.
As for `COc1nc2nc(C(F)(F)F)c(-c3cnn(CC(F)(F)C(F)(F)F)c3)c(=O)n2cc1Cl` [Example 66, 7-Chloro-8-methoxy-3-[1-(2,2,3,3,3-pentafluoropropyl)-1H-pyrazol-4-yl]-2-(trifluoromethyl)-4H-[1,3]diazino[1,2-a]pyrimidin-4-one], the figure is 111 nM; as for `O=c1c(-c2ccc(OCC(F)(F)F)cc2)c(C(F)(F)F)nc2cc(OC(F)F)ccn12` [Example 1-66, 8-(difluoromethoxy)-3-(4-(2,2,2-trifluoroethoxy)phenyl)-2-(trifluoromethyl)-4H-pyrido[1,2-a]pyrimidin-4-one], 79.1 nM; as for `CN(C)Cc1ccn2c(=O)c(-c3cnn(CC(F)(F)C(F)(F)F)c3)c(C(F)(F)F)nc2c1` [Example 26, 8-((Dimethylamino)methyl)-3-(1-(2,2,3,3,3-pentafluoropropyl)-1H-pyrazol-4-yl)-2-(trifluoromethyl)-4H-pyrido[1,2-a]pyrimidin-4-one], 128 nM.
As for `CC(=O)c1ccn2c(=O)c(-c3ccc(OCC(F)(F)F)cc3)c(C(F)(F)F)nc2c1` [Example 1-25, 8-acetyl-3-(4-(2,2,2-trifluoroethoxy)phenyl)-2-(trifluoromethyl)-4H-pyrido[1,2-a]pyrimidin-4-one], the figure is 6.4 nM; as for `COc1cc(C)n2c(=O)c(-c3cnn(CC(F)(F)C(F)(F)F)c3)c(C(F)(F)F)nc2c1` [Example 39-8, 8-methoxy-6-methyl-3-[1-(2,2,3,3,3-pentafluoropropyl)-1H-pyrazol-4-yl]-2-(trifluoromethyl)-4H-pyrido[1,2-a]pyrimidin-4-one], 1350 nM.
Turning to `COc1ccn2c(=O)c(-c3ncc(OCC(F)(F)F)s3)c(C(F)(F)F)nc2c1` [Example 57, 8-methoxy-3-[5-(2,2,2-trifluoroethoxy)-1,3-thiazol-2-yl]-2-(trifluoromethyl)-4H-pyrido[1,2-a]pyrimidin-4-one], the IC50 was determined as 1150 nM.
For `COc1ccn2c(=O)c(-c3nnn(CC(F)(F)C(F)(F)F)c3I)c(C(F)(F)F)nc2c1` [Example 52, 3-[5-Iodo-1-(2,2,3,3,3-pentafluoropropyl)-1H-1,2,3-triazol-4-yl]-8-methoxy-2-(trifluoromethyl)-4H-pyrido[1,2-a]pyrimidin-4-one], half-maximal inhibition (IC50) was put at 158 nM.
As for `COc1ccn2c(=O)c(-c3ccc(OCC(F)(F)F)nc3F)c(C(F)(F)F)nc2c1` [Example 7-1, 3-(2-Fluoro-6-(2,2,2-trifluoroethoxy)-3-pyridinyl)-8-methoxy-2-(trifluoromethyl)-4H-pyrido[1,2-a]pyrimidin-4-one], 125 nM corresponded to half-maximal inhibition (IC50).
As for `Cc1cnn2c(=O)c(-c3cnn(CC4CC(F)(F)C4)c3)c(C(F)(F)F)nc2c1` [Example 39-52, 3-{1-[(3,3-difluorocyclobutyl)methyl]-1H-pyrazol-4-yl)-8-methyl-2-(trifluoromethyl)-4H-pyrimido[1,2-b]pyridazin-4-one], the figure is 420 nM.
Next, `Cc1cc2nc(C(F)(F)F)c(-c3cnn(CC(F)(F)C(F)(F)F)c3)c(=O)n2cc1F` [Example 39-56, 7-fluoro-8-methyl-3-[1-(2,2,3,3,3-pentafluoropropyl)-1H-pyrazol-4-yl]-2-(trifluoromethyl)-4H-pyrido[1,2-a]pyrimidin-4-one]: 19.1 nM.
Next, `O=c1c(-c2ccc(OCC(F)(F)F)cc2)c(C(F)(F)F)nc2cc(C3CC3)ccn12` [Example 4-2, 8-cyclopropyl-3-(4-(2,2,2-trifluoroethoxy)phenyl)-2-(trifluoromethyl)-4H-pyrido[1,2-a]pyrimidin-4-one]: 111 nM; `Cc1cnn2c(=O)c(-c3cnn(CC4CC4)c3)c(C(F)(F)F)nc2c1` [Example 39-51, 3-[1-(cyclopropylmethyl)-1H-pyrazol-4-yl]-8-methyl-2-(trifluoromethyl)-4H-pyrimido[1,2-b]pyridazin-4-one]: 74.3 nM.
Consider `COc1cc2nc(C(F)(F)F)c(-c3cnn(CC(F)(F)C(F)(F)F)c3)c(=O)n2cc1Cl` [Example 1-45, 7-chloro-8-methoxy-3-[1-(2,2,3,3,3-pentafluoropropyl)-1H-pyrazol-4-yl]-2-(trifluoromethyl)-4H-pyrido[1,2-a]pyrimidin-4-one], for which half-maximal inhibition (IC50) required 86.1 nM.

These data come from patent US12473289B2, “Heterocyclic compounds as delta-5 desaturase inhibitors and methods of use” (Amgen Inc., priority 2019, dated 2025).
